Consider six compounds from publication PMC12345401, “The mRNA Translation Inhibitor Vioprolide A Prevents Inflammatory Pain‐Like Behaviour With Limited Action on Already Established Pain‐Like Behaviour in Mice” (European Journal of Pain (London, England), 2025).

Data set [1] concerns C57BL/6N mice. Briefly: CFA-induced paw inflammation, mechanical hypersensitivity. Type of data set: in vivo, mouse. The procedure:
(§1) Paw withdrawal latencies following mechanical stimulation were assessed using a dynamic plantar aesthesiometer (Ugo Basile, Gemonio, Italy), which compresses a stainless‐steel probe (0.5‐mm diameter) against the plantar surface of the hindpaw through a wire mesh bottom on which the mice are placed. The applied force was increased from 0 to 5 g over a period of 10 s (0.5 g/s ramp) and then remained constant at 5 g for an additional 10 s (total cutoff time, 20 s). An unequivocal paw withdrawal was evaluated as a response. The paw withdrawal latency was calculated as the average of three to four consecutive exposures with at least 20 s in between. The area under the curve was calculated using Prism 10 (Graph Pad) software.
Paw inflammation was induced by injecting 20 μL of complete Freund's adjuvant (CFA; containing 1 mg/mL heat‐killed Mycobacterium tuberculosis in paraffin oil 85% and mannide monooleate 15%; Sigma‐Aldrich, St. Louis, USA) into the plantar side of a hindpaw (Petersen et al. [2019]). Vioprolide A (0.3, 1 or 3 mg/kg), diclofenac (50 mg/kg; Sigma‐Aldrich, St. Louis, USA), or vehicle (1% DMSO in 0.9% NaCl) was i.p. administered in a volume of 100 μL 24 h after the intraplantar CFA injection. Paw withdrawal latencies following mechanical stimulation were assessed using a dynamic plantar aesthesiometer as described above.

For a further data set, the system named is mice. To be noted: cited from earlier work; for cytokines (interleukin-1β, interleukin-6, tumour necrosis factor) in peritoneal lavage after zymosan-induced peritonitis: Stark et al. [2019].
Data set [2] concerns C57BL/6N mice. The arrangement: method as in Metzner et al. [2021]. To be noted: positive control in a previous study; ref Metzner et al. [2021]; cited from earlier work.
Another data set has as its system rodents. The arrangement: method as in earlier work. The settings on record: local treatment, ref Geranton et al. [2009], Jimenez-Diaz et al. [2008], Price et al. [2007]; cited from earlier work.
The subject of data set [3] is C57BL/6N mice. Briefly: Zymosan-induced peritonitis, dynamic weight bearing. The class given is in vivo, mouse. To be noted: 0.3 mg/kg s.c. into the neck 16 h prior to i.p. zymosan; DWB 5 h after zymosan; vs vehicle. On the procedure: Acute peritonitis was induced by a single intraperitoneal (i.p.) injection (0.5 mL) of a zymosan A suspension (2 mg/mL in phosphate‐buffered saline (PBS) without Ca^2+/Mg^2+; Sigma‐Aldrich, Steinheim, Germany and Gibco, Darmstadt, Germany) as described (Stark et al. [2019]). Vioprolide A (0.3 mg/kg; kindly provided by the group of Prof. Rolf Müller, Helmholtz Institute for Pharmaceutical Research Saarland (HIPS), Helmholtz Center for Infection Research and Department of Pharmacy, Saarland University, Saarbrücken, Germany) or vehicle (1% DMSO in 0.9% NaCl) was subcutaneously (s.c.) injected into the neck (to prevent direct interaction with the i.p. applied zymosan) in a volume of 100 μL 16 h prior to the zymosan injection. An automated dynamic weight bearing (DWB) device (Bioseb, Boulogne, France) was used to assess the pain‐like behaviour during zymosan‐induced peritonitis. […] The recorded weight distribution was analysed using the DWB software as described (Laux‐Biehlmann et al. [2016]; Stark et al. [2019]). A zone was considered valid when the following parameters were detected: ≥ 0.8 g on one captor with a minimum of two adjacent captors recording ≥ 1.0 g. A time segment was considered valid if ≥ 3 stable pictures were detected (Laux‐Biehlmann et al. [2016]; Stark et al. [2019]). […]

Data set [4] deals with C57BL/6N mice. Briefly: Zymosan-induced paw inflammation, mechanical hypersensitivity (dynamic plantar aesthesiometer). Type of data set: in vivo, mouse. To be noted: 0.3, 1 and 3 mg/kg s.c. 16 h prior to intraplantar zymosan; 1-72 h post-zymosan; vs vehicle. The procedure: (§2) Paw inflammation was induced by injecting 20 μL of a zymosan A suspension (5 mg/mL in PBS without Ca^2+/Mg^2+, pH 7.4; Sigma‐Aldrich, St. Louis, USA) into the plantar side of a hindpaw (Petersen et al. [2019]). Vioprolide A (0.3, 1 or 3 mg/kg) or vehicle (1% DMSO in 0.9% NaCl) was s.c. administered into the neck in a volume of 100 μL 16 h prior to the intraplantar zymosan injection.
as §1

In data set [5] the test system is C57BL/6N mice. Briefly: Zymosan-induced paw oedema (plethysmometer). The class given is in vivo, mouse. To be noted: 0.3, 1 and 3 mg/kg s.c. 16 h prior to intraplantar zymosan; vs vehicle. On the procedure:
as §2
The volume of the hindpaw was measured using a plethysmometer (Ugo Basile, Gemonio, Italy) according to the manufacturer's instructions. The dipping solution contained 0.8–0.9 g/L NaCl in distilled water and 2–3 mL/L wetting compound (Ugo Basile, Gemonio, Italy) to reduce drop and meniscus build‐up. The paw volume was calculated as a mean of three measurements. The area under the curve was calculated using Prism 10 (Graph Pad) software.

The subject of data set [6] is C57BL/6N mice. The data set can be described thus: Spared nerve injury (SNI)-induced neuropathy, mechanical hypersensitivity. The class given is in vivo, mouse. To be noted: 0.3 mg/kg i.p. on Day 14 after SNI; observed over 48 h. The procedure:
as §1
The SNI model was performed as described previously (Bourquin et al. [2006]; Petersen et al. [2019]). Briefly, under isoflurane anaesthesia the tibial and common peroneal branches of the sciatic nerve were ligated and dissected distally. The sural nerve remained intact and the mice developed hypersensitivity in the lateral area of the hindpaw. Vioprolide A (0.3 mg/kg) or vehicle (1% DMSO in 0.9% NaCl) were i.p. administered in a volume of 100 μL 14 days after SNI. Paw withdrawal latencies following mechanical stimulation were assessed using a dynamic plantar aesthesiometer as described above.

Data set [7] deals with C57BL/6N mice. Briefly: Accelerating rotarod test. Type of data set: in vivo, mouse. The settings on record: 3 mg/kg s.c. into the neck; naive mice; 20 and 44 h after administration. On the procedure:
(§3) For the accelerating rotarod test, mice were placed on a rotarod treadmill (Ugo Basile, Gemonio, Italy) at increasing speed (4–40 rpm over 300 s; cutoff time 300 s) and trained for several consecutive days. Only mice that reached 300 s without falling off during the training sessions were included in the experiment. In the vertical pole test, mice were placed with the head pointing upward on a vertical pole and the time needed to reach the ground was recorded (cutoff time 20 s). After baseline measurements, vioprolide A (3 mg/kg) or vehicle (1% DMSO in 0.9% NaCl) was s.c. administered into the neck and the accelerating rotarod test immediately followed by the vertical pole test was performed 20 and 44 h after drug administration. Three trials per mouse were used for evaluation (Balzulat et al. [2024]).
In general terms: In the rotarod test animals must keep their balance on a rotating rod.

The subject of data set [8] is C57BL/6N mice. The data set can be described thus: Vertical pole test. Type of data set: in vivo, mouse. The settings on record: 3 mg/kg s.c. into the neck; naive mice; 20 and 44 h after administration. The procedure: as §3
Data set [9] concerns C57BL/6N mice. The data set can be described thus: Von Frey filament test in naive mice. The settings on record: 3 mg/kg s.c. into the neck, 22 and 46 h after administration. Type of data set: in vivo, mouse. The procedure:
Immediately after the vertical pole test, mice were placed on a wire‐mesh platform in Plexiglas cylinders and habituated for approximately 1 h. Von Frey filaments ranging from 0.04 to 4 g (Ugo Basile, Gemonio, Italy) were applied to the plantar surface of a hind paw for 1 s with a force causing the filament to bend. Starting with the lowest force, each filament was applied 10 times with a break of at least 2 min. The number of paw withdrawal reactions per 10 applications was used to calculate the withdrawal frequency (Beaulieu‐Laroche et al. [2020]). Measurements were performed at baseline and 22 and 46 h after vioprolide A or vehicle administration.

Data set [10] is described as follows: Pharmacokinetic profile, plasma (LC-MS). To be noted: 0.3 mg/kg i.p. The class given is in vivo. The procedure:
(§4) The pharmacokinetic profile of vioprolide A was determined by staff of Pharmacelsus (Saarbrücken, Germany) in male C57BL/6 mice as described (Balzulat et al. [2024]). A single dose of 0.3 mg/kg vioprolide A (in NaCl 0.9% + 1% DMSO) was i.p. administered, and two blood samples were obtained from each animal retrobulbarly under short isoflurane anaesthesia (at 0.25 and 0.5 h from 3 mice; at 1 and 2 h from 3 mice; and at 4 and 8 h from 3 mice). Immediately after the last blood sample was taken, the animal was euthanised by cervical dislocation, and the brain was collected. Plasma and brain concentrations of vioprolide A were determined by LC–MS analysis. The pharmacokinetic analysis was performed applying a non‐compartment model using the Kinetica 5.0 software (Thermo Scientific, Waltham, USA). All given parameters were obtained by trapezoid area calculation.

Data set [11] can be described thus: Pharmacokinetic profile, brain levels (LC-MS). Type of data set: in vivo. To be noted: 0.3 mg/kg i.p., mouse brain, over 8 h. The procedure: as §4
Setting [12] is: male, C57BL/6, ip, mouse plasma.

A word on the AUC(0-t): it is exposure summed from dosing to a finite time, without extrapolation to infinity. A higher AUC(0-t) goes with high exposure. In general, Cmax refers to the maximum level reached in the sampled fluid or tissue. Usually Tmax stands for the time at which the peak concentration occurs. A word on the AUC(0-inf): it is total exposure, with the tail of the curve extrapolated.

Entries after “also recorded” stand apart in the source; their conditions may differ.

On to `O=C(O)Cc1ccccc1Nc1c(Cl)cccc1Cl` [diclofenac, reference compound], for which the “CFA-induced mechanical hypersensitivity (paw withdrawal latency)” value with C57BL/6N mice [1] (50 mg/kg i.p. 24 h after intraplantar CFA, positive control, statistical significance not reached) is “visibly attenuated”.

Turning to `COC(=O)C[C@](O)(CCCC(C)(C)O)C(=O)O[C@@H]1C(OC)=C[C@]23CCCN2CCc2cc4c(cc2[C@H]13)OCO4` [homoharringtonine], in the data set on mice (ref Burgers et al. [2024]), the “cytokines (interleukin-1β, interleukin-6, tumour necrosis factor) in peritoneal lavage after zymosan-induced peritonitis” value is listed as “reduced the amount of cytokines” and the “pain behaviour during zymosan-induced peritonitis” value was “ameliorated the pain behaviour”.

On to `O=C1N[C@@H]2C(=C[C@H](O)[C@@H](O)[C@H]2O)c2cc3c(c(O)c21)OCO3` [narciclasine], for which, in the data set with mice (ref Burgers et al. [2024]), the “cytokines (interleukin-1β, interleukin-6, tumour necrosis factor) in peritoneal lavage after zymosan-induced peritonitis” value is “reduced the amount of cytokines”. For the same compound, the “visceral pain behaviour in murine peritonitis model” value in the data set on mice (ref Stark et al. [2019]) is reported as “significantly inhibited visceral pain behaviour”.

`CC(C)C[C@H](CN)CC(=O)O` [pregabalin]: the “neuropathic pain behaviour in SNI model” value in the data set with C57BL/6N mice [2] is recorded as “attenuated the neuropathic pain behaviour”.

For `CO[C@H]1C[C@@H]2CC[C@@H](C)[C@@](O)(O2)C(=O)C(=O)N2CCCC[C@H]2C(=O)O[C@H]([C@H](C)C[C@@H]2CC[C@@H](O)[C@H](OC)C2)CC(=O)[C@H](C)/C=C(\C)[C@@H](O)[C@@H](OC)C(=O)[C@H](C)C[C@H](C)/C=C/C=C/C=C/1C` [rapamycin], in the data set with rodents, the persistent pain-like behaviour entry is listed as “attenuated persistent pain‐like behaviour”.

Regarding `C/C=C1/NC(=O)[C@@H]2CSC(=N2)[C@@H]2C[C@@H](C)N2C(=O)[C@@H](CC(C)C)NC(=O)[C@H](C)NC(=O)[C@@H](O)COC(=O)[C@H](C(C)C)N(C)C(=O)[C@H]([C@@H](C)O)NC(=O)[C@@H]2CCCCN2C1=O` [vioprolide A], the “zymosan-induced weight shift towards the frontpaws (visceral nociceptive behaviour)” value in the data set on C57BL/6N mice [3] is listed as “significantly ameliorated; also recorded: significantly lower”. The “zymosan-induced mechanical hypersensitivity (paw withdrawal latency, time course and AUC)” value in the data set with C57BL/6N mice [4] is “significantly ameliorated; also recorded: significantly reduced”. In addition, in the data set on C57BL/6N mice [5], the “zymosan-induced paw edema (paw volume, time course and AUC)” value is listed as “decreased in a dose‐dependent manner; also recorded: significantly reduced”. Moreover, in the data set on C57BL/6N mice [1] (0.3, 1 and 3 mg/kg i.p. 24 h after intraplantar CFA, observed over 24 h), the “CFA-induced mechanical hypersensitivity (paw withdrawal latency)” value is “failed to affect the mechanical hypersensitivity; also recorded: none of the applied doses of vioprolide A affected”. Also, the “SNI-induced mechanical hypersensitivity (paw withdrawal latency)” value with C57BL/6N mice [6] is reported as “did not affect; also recorded: failed to affect the mechanical hypersensitivity”. For the same compound, in the data set with C57BL/6N mice [7], the “motor function, time on accelerating rotarod” value is “did not affect the time spent on the rotarod; also recorded: did not impair motor function”. In addition, the “motor function, vertical pole test” value in the data set with C57BL/6N mice [8] is listed as “did not affect; also recorded: did not impair motor function”. Further, the “mechanical sensitivity, paw withdrawals to von Frey filaments” value in the data set on C57BL/6N mice [9] is given as “did not alter mechanical sensitivity”. In [10] (mouse plasma), the “%AUCextra (extrapolated part of AUC0-inf)” value is given as 3.9%, the “t 1/2z (half-life of the terminal slope)” value is on record as 1.0 h and the “t z (time of the last quantifiable sample)” value is given as 4.0 h. In [10] (male, C57BL/6, intraperitoneal, mouse plasma, read-out: C z (last analytically quantifiable concentration)), the concentration at 4 h was 0.1 ng/mL. In [10] (setting [12]), the AUC(0-t) was 3.6 ng·h/mL, the concentration peaked (Cmax) at 7.8 ng/mL and the Tmax was determined as 0.25 h. The AUC(0-inf) in data set [10] (male, C57BL/6, ip, mouse plasma, extrapolated to infinity) was 3.8 ng·h/mL. In addition, the CL/F in [10] (male, C57BL/6, ip, mouse plasma, read-out: CL/f (total body clearance after extravascular administration) (converted)) was 1330 mL/min/kg. In data set [10] (male, C57BL/6, ip, mouse plasma, read-out: V z/f (volume of distribution after extravascular administration)), the Vd/F came to 116 L/kg. Besides, in data set [10] (male, C57BL/6, mouse, plasma, ip, 0.3 mg/kg, read-out: t 1/2z (half-life of the terminal slope) (converted)), the half-life is approximately 1 h. Also, in data set [11], the brain level entry was “not detected in the brain”.
